Experimental data published in US8569335B2, “Compounds derived from taurine, process of their preparation and pharmaceutical compositions containing these” (EMS S.A., priority 2008, dated 2013).
Read-outs that look alike come from different tables or passages of the source.

Key:
iNOS = biological target: T1, iNOS (Homo sapiens, UniProt P35228); experiment: nitric oxide production by macrophages stimulated with LPS, indirect nitrite (NO2-) detection; format: cell-based; conditions: 24 hours
T1 construct: The assay used the maximum production of nitric oxide (macrophages stimulated with LPS); endogenous in cells
T1 sequence (P35228 whole entry, species assumed): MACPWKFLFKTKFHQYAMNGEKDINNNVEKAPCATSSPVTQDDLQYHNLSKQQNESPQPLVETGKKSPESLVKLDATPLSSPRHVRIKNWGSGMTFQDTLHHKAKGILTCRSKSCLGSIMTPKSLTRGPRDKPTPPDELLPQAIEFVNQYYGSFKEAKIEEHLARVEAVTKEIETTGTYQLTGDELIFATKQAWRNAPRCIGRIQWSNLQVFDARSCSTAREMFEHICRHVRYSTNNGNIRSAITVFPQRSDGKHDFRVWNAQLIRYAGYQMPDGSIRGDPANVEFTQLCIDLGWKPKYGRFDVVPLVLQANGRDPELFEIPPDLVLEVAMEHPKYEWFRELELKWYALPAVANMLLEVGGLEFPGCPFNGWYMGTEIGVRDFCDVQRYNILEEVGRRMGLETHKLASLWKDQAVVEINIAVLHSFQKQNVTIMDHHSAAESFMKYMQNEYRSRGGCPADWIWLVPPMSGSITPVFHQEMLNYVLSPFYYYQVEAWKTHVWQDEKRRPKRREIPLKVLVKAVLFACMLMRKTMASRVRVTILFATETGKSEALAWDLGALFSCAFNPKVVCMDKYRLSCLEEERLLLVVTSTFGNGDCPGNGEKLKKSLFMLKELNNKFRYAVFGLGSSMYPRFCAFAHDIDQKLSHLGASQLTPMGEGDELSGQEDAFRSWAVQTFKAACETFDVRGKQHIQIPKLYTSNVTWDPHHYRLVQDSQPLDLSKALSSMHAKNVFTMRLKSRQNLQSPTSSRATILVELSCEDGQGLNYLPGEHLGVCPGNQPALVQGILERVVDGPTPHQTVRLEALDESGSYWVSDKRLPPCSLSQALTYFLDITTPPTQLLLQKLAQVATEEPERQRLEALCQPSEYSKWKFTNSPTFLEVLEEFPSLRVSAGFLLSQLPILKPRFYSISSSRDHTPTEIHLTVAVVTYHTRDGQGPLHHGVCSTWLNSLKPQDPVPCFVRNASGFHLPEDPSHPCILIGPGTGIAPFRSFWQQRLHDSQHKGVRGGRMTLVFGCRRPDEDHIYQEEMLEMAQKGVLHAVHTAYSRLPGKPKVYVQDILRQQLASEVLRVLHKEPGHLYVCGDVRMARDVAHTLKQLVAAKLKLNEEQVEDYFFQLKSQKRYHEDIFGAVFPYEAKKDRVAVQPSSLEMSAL

Wistar female rats = conditions: for survival: dosage of 1,000 mg/Kg
Method: Wistar female rats weighting between 200 and 250 g were used. […] To all studied groups, dosages of 1,000 and, alternatively, of 1,500 mg/kg were administered by gavage feeding.
After fourteen (14) days of administration and observation regarding the toxicity signs of general kind, effects on motion, behavior, breathing, number of deaths and form of occurrence, the animals that have survived were subjected to euthanasia in CO2 and had their organs such as heart, lungs, kidney, liver and stomach removed and weighted. For the analysis of the results were also considered the body weights.

Wistar rat paw's edema = Wistar rat paw's edema induced by carragenin; format: in vivo; conditions: oral; dosage of 44 mg/kg (example 2), 130 mg/Kg (example 3), 182 mg/Kg (example 1)
Method: 14, p. 2589-99, 2006); ÖZTÜRK, G. et al. (ÖZTÜRK, G. et al. “New analgesic and antiinflammatory agents 4(1H)-pyridinone derivatives”, Europe Journal Medicinal Chemistry, v. 37, n. 10 p. 829-34, 2002); LOLLI, et al. (LOLLI, et al. “A new class of ibuprofen derivatives with reduced gastrotoxicity”, Journal of Medicinal Chemistry, v. 44, p. 3463-68, 2001). Besides these, a paw's edema test was performed using taurine as control of its derived compounds, in the dosage of 10 mg/Kg according to HIRATA, T. et al. (HIRATA, T. et al. “Cyclo-oxygenase isozymes in mucosal ulcergenic and functional responses following barrier disruption in rat stomachs”, British Journal of Pharmacology, v. 122, p. 447-54, 1997).
In order to confirm the biological activity of the compounds of the present invention, tests were performed according to the pharmacological model of Wistar rat paw's edema using groups of six animals. It was verified that, in the reported concentrations, in the presence of equimolar dosages of the compounds described in the articles above-mentioned, such as referral drugs, a reduction of the inflammatory process with the use of the compounds of the invention was observed.
The compounds of the present invention were administered 1 (one) hour prior the inoculation of the irritant agent carragenin in the paws of the animals, with the aid of a gavage tube, orally, using water as solvent.
The control group had the irritant agent carragenin applied to the bottom of their posterior paws and, orally, saline solution. […] Other groups of animals had the taurine derived of the present invention (embodiments corresponding to Examples 1, 2 and 3, respectively—orally) administered 60 minutes prior to the carragenin (bottom of the paw).
The posterior paws were measured prior to the treatments and at each hour, for 6 hours after the carragenin was administered, using an thickness meter, in order to measure their volume (in mm). The results were expressed by the difference between the paw's measurement readings before and after the treatments.

gastric mucous membrane = experiment: Gastric ulcerogenesis (gastric ulcerogenesis index, G.U.I.); format: in vivo; conditions: for alterations / color of the gastric mucous membrane: same animals as paw's edema model; for lesion index (gastric ulcerogenesis index): stomach 6 hours after paw readings, macroscopic and microscopic (640x)
Method: Gastric ulcerogenesis was verified in the same animals of the groups used for the model of paw's edema.
After 6 hours of the paw's measurement readings, the animals were subjected to euthanasia in CO2, and had their stomach removed, cut open in the longitudinal axis and washed with saline solution. In all experiments, the groups were composed of 6 animals, being kept the desired therapeutic activity, with absence of gastric lesions, and after the LD50 assays, it was concluded that the taurine derived compounds of the present invention are safe. It is worth observing, still, that other organs, such as lungs and intestine, as well as the macroscopic integrity of the other organs were kept preserved.
Through mucous membrane exposition, it was observed its color and integrity. In the case of lesions existence, they were counted and measured, according to the gastric ulcerogenesis index (G.U.I.) that follows numeric criteria for classification of lesions of the gastric mucous membrane: (lesions<1 mm=1; […]; 2.5 to 3.5 mm=3; 3.5 to 4.5 mm=4 and >4.5 mm=5). The obtained results were reported as averages±E. P. M. The results of the lesion experiment regarding the administration of the compounds of the present invention (embodiments corresponding to the Examples 1, 2 and 3) were neither macroscopically nor microscopically (640×) observed, being reported as lesion index of 0 (zero) value.

[1] = oral administration; literature (Merck Index); cited from earlier work
gastric mucosal injury = conditions: rats pre-treated intragastrically with 250 or 500 mg/kg 1 to 3 days before 25 mg/kg indometacin; cited from earlier work
[2] = test system: isolated gastric mucosal cells; conditions: cited from earlier work
gastric ulceration = conditions: pre clinic tests; cited from earlier work

N=C(N)NN [aminoguanidine]
inhibition of nitric oxide production (NOS inhibition activity) (iNOS): total inhibition of nitric oxide production

COc1ccc2c(c1)c(CC(=O)NCCS(=O)(=O)[O-])c(C)n2C(=O)c1ccc(Cl)cc1.[Na+] [Compound 64]
weight of the organs (kidney, heart and liver) versus control animals (Wistar female rats; after the toxicity assay, 14 days): substantially close of those obtained with the control animals
survival (Wistar female rats; gavage): no animal has died
population survived (Wistar female rats; dosage of 1,500 mg/Kg, gavage): 66%
anti inflammatory activity in paw's edema (Wistar rat paw's edema): anti inflammatory activity
alterations / color of the gastric mucous membrane (gastric mucous membrane): not observed alterations in the mucous membrane
lesion index (gastric ulcerogenesis index) (gastric mucous membrane): 0

CC(C)Cc1ccc(C(C)C(=O)NCCS(=O)(=O)[O-])cc1.[Na+] (stereo not shown) [Compound 27, [2-(4-isobuthylphenyl)propanoyl]amide ethanesulfonic acid]
deaths (Wistar female rats; any of the tested dosages (1,000 and 1,500 mg/kg), gavage): no death in any of the tested dosages
LD50 [1]: 1,050 mg/Kg
anti inflammatory activity in paw's edema (Wistar rat paw's edema): anti inflammatory activity
alterations / color of the gastric mucous membrane (gastric mucous membrane): did not present any color alteration in the mucous membrane
alterations / color of the gastric mucous membrane (gastric mucous membrane; listed as Example 1): not observed alterations in the mucous membrane
lesion index (gastric ulcerogenesis index) (gastric mucous membrane): 0

COc1ccc2cc(C(C)C(=O)NCCS(=O)(=O)[O-])ccc2c1.[Na+] (stereo not shown) [Compound 63, 2-{[2-(6-methoxy-2-naphthyl)propanoyl]amide}ethanesulfonic acid]
survival (Wistar female rats; gavage): all animals survived
deaths (Wistar female rats; dosage of 1,500 mg/Kg, gavage): 17%
LD50 [1]: 1,234 mg/Kg
anti inflammatory activity in paw's edema (Wistar rat paw's edema): anti inflammatory activity
alterations / color of the gastric mucous membrane (gastric mucous membrane): not observed alterations in the mucous membrane
lesion index (gastric ulcerogenesis index) (gastric mucous membrane): 0

CC(C)Cc1ccc(C(C)C(=O)O)cc1 (stereo not shown) [ibuprophen, reference compound]
alterations / color of the gastric mucous membrane (gastric mucous membrane): color alteration of the mucous membrane

NCCS(=O)(=O)O [taurine, 2-aminoethanesulfonic acid]
hemorrhagic gastric lesion (gastric mucosal injury): lesion reduction
increase of cellular resistance [2]: 21%

COC(=O)[C@@H](N)CCCNC(=N)N[N+](=O)[O-] [L-NAME, N^G-nitro-L-arginine methyl esther]
change in gastric acidity (gastric ulceration): does not affect gastric acidity
lesion rate (gastric ulceration): doubles
reduction of nitric oxide (measured as nitrite) (gastric ulceration): 50%
